Test results taken from patent US6605601B2, “A1 adenosine receptor antagonists” (Biogen, Inc., priority 2000, dated 2003).

Biological target: T1, rat A1 adenosine receptor (Rattus norvegicus, UniProt P25099)
T1 construct: Membranes were prepared from rat cerebral cortex isolated from freshly euthanized rats; from tissue; host or cells: rat cerebral cortex
T1 sequence (P25099 1-326): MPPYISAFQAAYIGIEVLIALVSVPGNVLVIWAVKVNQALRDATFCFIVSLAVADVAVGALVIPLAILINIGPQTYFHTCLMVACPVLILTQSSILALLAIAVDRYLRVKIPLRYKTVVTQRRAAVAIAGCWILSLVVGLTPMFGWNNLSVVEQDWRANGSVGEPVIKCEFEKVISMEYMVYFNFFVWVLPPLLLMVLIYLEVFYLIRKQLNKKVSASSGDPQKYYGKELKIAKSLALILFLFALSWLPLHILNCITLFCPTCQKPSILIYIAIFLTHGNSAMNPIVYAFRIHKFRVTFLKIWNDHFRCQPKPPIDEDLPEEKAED
Test: Radioligand ([3H]DPCPX) competition binding assay on rat A1 adenosine receptor (rat cerebral cortex membranes)
Details: for Ki: [3H]DPCPX 1 nM, Cheng-Prusoff from IC50; for % specific radioligand binding remaining at 1 µM: 2.5 h, % of total specific radioligand binding remaining at 1 μM of competing compound
Description: For some of these compounds, the Ki values for rat and human adenosine A1 receptors were determined according to the following binding assay protocol.
Rat A1 Receptor: Membranes were prepared from rat cerebral cortex isolated from freshly euthanized rats. Tissues were homogenized in buffer A (10 mM EDTA, 10 mM Na-HEPES, pH 7.4) supplemented with protease inhibitors (10 μg/ml benzamidine, 100 μM PMSF, and 2 μg/ml each of aprotinin, pepstatin and leupeptin), and centrifuged at 20,000×g for 20 min. Pellets were resuspended and washed twice with buffer HE (10 mM Na-HEPES, 1 mM EDTA, pH 7.4, plus protease inhibitors). Final pellets were resuspended in buffer HE, supplemented with 10% (w/v) sucrose and protease inhibitors, and frozen in aliquots at −80° C. Protein concentrations were measured using BCA protein assay kit (Pierce).
Membranes (50 μg membrane protein for rat A1ARs, and 25 μg of CHO-K1 membrane protein for human A1ARs), radioligands and varying concentrations of competing ligands were incubated in triplicates in 0.1 ml buffer HE plus 2 units/ml adenosine deaminase for 2.5 h at 21° C. Radioligand [^3H]DPCPX (112 Ci/mmol from NEN, final concentration: 1 nM) was used for competition binding assays on A1ARs. Nonspecific binding was measured in the presence of 10 μM BG9719. Binding assays were terminated by filtration over Whatman GF/C glass fiber filters using a BRANDEL cell harvester. Filters were rinsed three times with 3-4 ml ice-cold 10 mM Tris-HCl, pH 7.4 and 5 mM MgCl2 at 4° C. Filter paper was transferred to a vial, and 3 ml of scintillation cocktail ScintiVerseII (Fisher)was added. Radioactivity was counted in a Wallac β-counter.
For K1 Determinations: Competition binding data were fit to a single-site binding model and plotted using Prizm GraphPad.
For % Binding: For one-point binding assays, data were presented as % of total specific binding at 1 μM of competing compound: % of total =100* (Specific binding with 1 μM of competing compound/total specific binding). % binding represents the amount of bound radioligand remaining in the presence of 1 μM of competing antagonist.

Compound | Ki | % specific radioligand binding remaining at 1 µM
CCCN1C(=O)N2C[C@@H](C(C)C)N=C2c2[nH]c(C34CCC(O)(CC3)CC4)nc21 [Compound 1, 2-(4-Hydroxy-bicyclo[2.2.2]oct-1-yl)-7-isopropyl-4-propyl-1,4,6,7-tetrahydro-1,3,4,5a,8-pentaaza-as-indacen-5-one] | 4.4 nM | –
CCCN1C(=O)N2C[C@@H](CC)N=C2c2[nH]c(C34CCC(O)(CC3)CC4)nc21 [Compound 2, 7-Ethyl-2-(4-hydroxy-bicyclo[2.2.2]oct-1-yl)-4-propyl-1,4,6,7-tetrahydro-1,3,4,5a,8-pentaaza-as-indacen-5-one] | 5.75 nM | –
CCCN1C(=O)N2C[C@@H](CC)N=C2c2[nH]c(C34CCC(CCC(=O)O)(CC3)CC4)nc21 [Compound 3, 3-[4-(7-Ethyl-5-oxo-4-propyl-4,5,6,7-tetrahydro-1H-1,3,4,5a,8-pentaaza-as-indacen-2-yl)-bicyclo[2.2.2]oct-1-yl]-propionic acid] | 8.38 nM | –
CCCN1C(=O)N2C[C@@H](C)N=C2c2[nH]c(C34CCC(O)(CC3)CC4)nc21 [Compound 4, 2-(4-Hydroxy-bicyclo[2.2.2]oct-1-yl)-7-methyl-4-propyl-1,4,6,7-tetrahydro-1,3,4,5a,8-pentaaza-as-indacen-5-one] | 9.92 nM | –
CCCN1C(=O)N2C[C@@H](C(C)C)N=C2c2[nH]c(C34CCC(CCC(=O)O)(CC3)CC4)nc21 [Compound 5, 3-[4-(7-Isopropyl-5-oxo-4-propyl-4,5,6,7-tetrahydro-1H-1,3,4,5a,8-pentaaza-as-indacen-2-yl)-bicyclo[2.2.2]oct-1-yl]-propionic acid] | 10.5 nM | 1.9%
CCCN1C(=O)N2CCN=C2c2[nH]c(C34CCC(C(=O)O)(CC3)CC4)nc21 [Compound 6, 4-(5-Oxo-4-propyl-4,5,6,7-tetrahydro-1H-1,3,4,5a,8-pentaaza-as-indacen-2-yl)-bicyclo[2.2.2]octane-l-carboxylic acid] | – | 2.6%
CCCN1C(=O)N2C[C@@H](C)N=C2c2[nH]c(C34CCC(CCC(=O)O)(CC3)CC4)nc21 [Compound 7] | 13.7 nM | 2.5%
CCCN1C(=O)N2C[C@@H](C(C)CC)N=C2c2[nH]c(C34CCC(O)(CC3)CC4)nc21 (stereo partly shown) [Compound 8] | 14.1 nM | 1%
CCCN1C(=O)N2C[C@@H](CC)N=C2c2[nH]c(C34CCC(CC3)CC4)nc21 [Compound 9] | 26.7 nM | 0.1%
CCCN1C(=O)N2C[C@@H](CC)N=C2c2[nH]c(C34CCC(C(=O)O)(CC3)CC4)nc21 [Compound 10] | 40.2 nM | 6.2%
CCC[C@@H]1CN2C(=O)N(CCC)c3nc(C45CCC(O)(CC4)CC5)[nH]c3C2=N1 [Compound 11] | 43.2 nM | 3.7%
CCCN1C(=O)N2C(=NC[C@@H]2C)c2[nH]c(C34CCC(O)(CC3)CC4)nc21 [Compound 12] | 51.3 nM | 8.6%
CCCN1C(=O)N2C[C@@H](c3ccccc3)N=C2c2[nH]c(C34CCC(O)(CC3)CC4)nc21 [Compound 13] | 68.3 nM | –
CCCN1C(=O)N2C(=NC[C@H]2C)c2[nH]c(C34CCC(O)(CC3)CC4)nc21 [Compound 14] | 68.5 nM | 7.8%
CCCN1C(=O)N2C[C@H](C(C)CC)N=C2c2[nH]c(C34CCC(O)(CC3)CC4)nc21 (stereo partly shown) [Compound 15] | 93 nM | 7.7%
CCCN1C(=O)N2C[C@@H](C(C)(C)C)N=C2c2[nH]c(C34CCC(O)(CC3)CC4)nc21 [Compound 16] | 155 nM | –

Compound | Ki | % specific radioligand binding remaining at 1 µM
CCCN1C(=O)N2C[C@@H](CC(C)C)N=C2c2[nH]c(C34CCC(O)(CC3)CC4)nc21 [Compound 17] | 167 nM | –
CCCN1C(=O)N2C[C@@H](Cc3ccccc3)N=C2c2[nH]c(C34CCC(O)(CC3)CC4)nc21 [Compound 18] | 708 nM | –
CCCC[C@@H]1CN2C(=O)N(CCC)c3nc(C45CCC(O)(CC4)CC5)[nH]c3C2=N1 [Compound 19] | – | 18.1%
CCCN1C(=O)N2CCCN=C2c2[nH]c(C34CCC(O)(CC3)CC4)nc21 [Compound 20] | – | 52.7%
CCCN1C(=O)N2CCN=C2c2[nH]c(C34CCC(O)(CC3)CC4)nc21 [Compound 21] | – | 12.2%
CCCN1C(=O)N2C[C@@H](C)N=C2c2[nH]c(C34CCC(C(=O)O)(CC3)CC4)nc21 [Compound 22] | – | 24%
CCC[C@@H]1CN2C(=O)N(CCC)c3nc(C45CCC(C(=O)O)(CC4)CC5)[nH]c3C2=N1 [Compound 23] | – | 22.8%
CCCN1C(=O)N2C[C@H](CC)N=C2c2[nH]c(C34CCC(O)(CC3)CC4)nc21 [Compound 24] | – | 11%
CCCN1C(=O)N2C[C@@H](C(C)C)N=C2c2[nH]c(C34CCC(C(=O)O)(CC3)CC4)nc21 [Compound 25] | – | 46.7%
CCCN1C(=O)N2C[C@H](CC)N=C2c2[nH]c(C34CCC(C(=O)O)(CC3)CC4)nc21 [Compound 26] | – | 41.1%
CCCN1C(=O)N2CCCCN=C2c2[nH]c(C34CCC(O)(CC3)CC4)nc21 [Compound 27] | – | 16.3%
CCCN1C(=O)N2C[C@@H](Cc3ccc(O)cc3)N=C2c2[nH]c(C34CCC(O)(CC3)CC4)nc21 [Compound 28] | – | 36.3%
CCCN1C(=O)N2CCCN=C2c2[nH]c(C34CCC(C(=O)O)(CC3)CC4)nc21 [Compound 29] | – | 81.8%
CCCN1C(=O)N2CCCCN=C2c2[nH]c(C34CCC(C(=O)O)(CC3)CC4)nc21 [Compound 30] | – | 71%
CCCN1C(=O)N2CC[C@@H](C)N=C2c2[nH]c(C34CCC(O)(CC3)CC4)nc21 [Compound 31] | – | 40%
